This note sets out measurements from patent publication EP2681209B1, “COMPOUNDS AND METHODS FOR THE TREATMENT OF PAIN AND OTHER DISORDERS” (Aquilus Pharmaceuticals, Inc, priority 2011, dated 2012).

As usually defined, the inhibition is the share of the control response that was lost under treatment.

Structures are written as SMILES.

One series relates to FVB male mice. The series can be described thus: Spinal nerve ligation (SNL) mouse model of neuropathic pain, intrathecal administration, von Frey tactile allodynia test. Format: in vivo. As to conditions: for 50% paw withdrawal threshold, Mean, Day 0 Postoperative Baseline: group baseline after SNL injury, before first injection; for 50% paw withdrawal threshold, Mean, Day 0 Postoperative Baseline / 50% paw withdrawal threshold, Mean, Day(-2) Pre-operative Baseline: von Frey; for 50% paw withdrawal threshold, Mean, Day(-2) Pre-operative Baseline: group baseline prior to SNL injury and before any treatment; for 50% paw withdrawal threshold, Mean, Day 5 / 50% paw withdrawal threshold, Mean, Day 7 / 50% paw withdrawal threshold, Mean, Day 1: i.t. 10 µl/mouse daily injections day 1-6; for 50% paw withdrawal threshold, Mean, Day 1: testing 2hr after first i.t. injection. The text has this:
To measure the neuropathic pain inhibiting affects of the MMP inhibitors of the present invention, the spinal nerve ligation (SNL) mouse model was run on a select number of compounds. This model which began with the work of Bennet and coworkers (Bennet, G.J. et al. Pain, 33, (1988), 87-107) and was optimized by Kim and Chung (Kim, S.H.; Chung, J.M. Pain, 50, (1992), 355-363) entails first, under magnification, the removal of one-third of the transverse process and then identifying and then dissecting free the L5 spinal nerve from the adjacent L4 spinal nerve in the mouse. The L5 spinal nerve is then tightly ligated using 6.0 silk suture. The nerve injury leads to hyperalgesia which manifests itself by enhanced responses to mechanical, heat and/or cooling stimuli. In this case, mechanical hyperalgesia is tested via Von Frey monofilaments in which filaments of varying thicknesses and bending force are individually applied to the plantar surface of the foot of the mouse. The threshold force necessary for paw withdrawal decreases dramatically after the nerve surgery. Potent pain inhibitors will reverse this affect resulting in greater force needing to be applied to cause the rodent paw to withdrawal.
Following preoperative baseline (Day -2) paw threshold measurement, FVB male mice were subjected to SNL injury (Day -1). The next day (Day 0) after SNL surgery, the animals were tested for post-operative baseline threshold measurements for mechanical allodynia; and the animals were then randomly assigned to one of 3 treatment groups (see Table 3). Over the course of the study, paw withdrawal threshold of these animals was measured in response to mechanical stimulation using the von Frey Monofilament Test.
To avoid systemic effects of the MMP inhibitors, the MMP inhibitors of the present invention were delivered into the cerebral spinal fluid (CSF) space around lumbosacral spinal cord via intrathecal (i.t.) administration, with the idea of targeting MMPs in the DRG, spinal cord, and spinal CSF. Intrathecal MMP inhibitor administration could then target not only spinal cord cells but also DRG cells. Each intrathecal (i.t.) injection was carried out according to the technique of Hylden and Wilcox (Hylden JL, Wilcox GL. Eur. J Pharmacol., 67, (1980), 313-6) 5.2 mg of each of the MMP inhibitors were first dissolved in 140 microliters of DMSO and then put into 1260 microliters of 0.5% hydroxypropyl cellulose (HPC) in water to make a fine suspension composed of compound in 10%DMSO-0.5% hydroxypropyl cellulose. 10 microliters of the mixture was injected into the intrathecal space of male FVB mice (weighing 22-25 grams each and obtained from the Jackson Laboratories, Bar Harbor, Me), by lumbar puncture in a volume of 10 µl/mouse using a Hamilton microsyringe via a 30 gauge needle inserted between lumbar vertebrae 5 and 6. In brief, each animal was held firmly by the pelvic girdle in one hand, while the needle was inserted into the tissue on the right side of the L5 or L6 spinous process. The needle was moved forward and slipped into the groove between the spinous process and transverse process and gently moved forward to the intervertebral space at ∼10° angle. As the needle was inserted (∼0.5 cm) within the vertebral column a tail flick was evident, and the solution was then injected. Table 3. Animal i.t. Treatment Groups & Compounds Tested
Tactile Allodynia Test. Mechanical allodynia was measured using the calibrated von Frey filaments (Semmes-Weinstein monofilaments; Stoelting, Wood Dale, IL, U.S.A.). The plantar surface of the left injured paw of each animal was tested as described by Chaplan et al. (Journal of Neuroscience Methods, 53, (1994), 55-63). […]

Series [1] has as its target Catalytic domain of MMP-9 (human recombinant) (Homo sapiens, UniProt P14780). The series can be described thus: biochemical. The conditions noted are these: read-out: Average Percent Inhibition (MMP-9).
Description: A concentration of MMP inhibitor of the present invention was tested (1 microMolar) in duplicate runs. […] The mixture of enzyme and compound in assay buffer was then thoroughly mixed and incubated for 60 minutes at 37 °C. Upon the completion of incubation, the assay was started by the addition of 10 µM of fluorescent substrate DNP-Pro-Cha-Gly-Cys(Me)-His-Ala-Lys(N-Me-Abz)-NH2 [Cha = β -cyclohexylalanyl; Abz = 2-aminobenzoyl (anthraniloyl)] (Kd - 7 microMolar).
The subject of another series is MMP-2. The series can be described thus: Gelatin zymography of mouse spinal cord for MMP-2 rebound effect. Format: in vivo, mice.
In another series the test system is MMP-9. Put plainly: Gelatin zymography of mouse spinal cord for MMP-9 rebound effect. Format: in vivo, mice. The text has this: There were three groups in the study comprising six mice for each group (Naive, control and compound 10 groups).
Where [2] appears, read: 0.5 and 2 hours after naloxone precipitated withdrawal and cessation of compound administration, versus control.
The mark [3] stands for this setting: after discontinuation of compound in naloxone precipitated withdrawal model.

Chain of Catalytic domain of MMP-9 (human recombinant) (P14780 107-444 limits assumed): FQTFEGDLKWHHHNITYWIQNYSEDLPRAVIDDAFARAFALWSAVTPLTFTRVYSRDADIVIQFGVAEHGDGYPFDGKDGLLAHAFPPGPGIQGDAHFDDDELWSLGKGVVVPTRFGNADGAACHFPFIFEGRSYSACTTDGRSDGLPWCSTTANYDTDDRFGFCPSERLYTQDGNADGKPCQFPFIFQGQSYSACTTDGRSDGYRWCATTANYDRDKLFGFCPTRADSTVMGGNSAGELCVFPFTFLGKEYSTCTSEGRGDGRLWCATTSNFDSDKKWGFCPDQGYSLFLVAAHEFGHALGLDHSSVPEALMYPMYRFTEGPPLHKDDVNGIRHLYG

As to `Cc1ccc(C#Cc2ccc(S(=O)(=O)N[C@H](Cc3c[nH]c4ccccc34)C(=O)O)s2)cc1` [Compound 5, (R)-3-(1H-Indol-3-yl)-2-(5-p-tolylethynyl-thiophene-2-sulfonylamino)-propionic acid], in the series with FVB male mice, the “50% paw withdrawal threshold, Mean, Day 0 Postoperative Baseline” value is on record as 0.050 g; the “50% paw withdrawal threshold, Mean, Day(-2) Pre-operative Baseline” value worked out at 1.265 g; the “50% paw withdrawal threshold, Mean, Day 5” value is 0.079 g; the “50% paw withdrawal threshold, Mean, Day 7” value turned out to be 0.190 g. Also, in the series with FVB male mice, the “50% paw withdrawal threshold, Mean, Day 1” value came to 0.098 g. Moreover, the inhibition at 1 µM in series [1] was 82%.

Take `[2H]C([2H])([2H])c1ccc(C#Cc2ccc(S(=O)(=O)N[C@H](Cc3c[nH]c4ccccc34)C(=O)O)s2)cc1` [Compound 10, (R)-3-(1H-Indol-3-yl)-2-[5-(4-trideuteromethyl-phenylethynyl)-thiophene-2-sulfonylamino]-propionic acid-(D3, 98%)]: in the series on FVB male mice, the “50% paw withdrawal threshold, Mean, Day 0 Postoperative Baseline” value came out at 0.077 g; the “50% paw withdrawal threshold, Mean, Day(-2) Pre-operative Baseline” value came to 1.268 g; the “50% paw withdrawal threshold, Mean, Day 5” value came to 0.320 g; the “50% paw withdrawal threshold, Mean, Day 7” value is 1.024 g. Moreover, the “50% paw withdrawal threshold, Mean, Day 1” value in the series with FVB male mice is 0.321 g. Moreover, the reversal of allodynia result in the series with FVB male mice (i.t. administration, as compared to vehicle and compound #5) is listed as “almost complete reversal of allodynia”. The “MMP-2 levels in spinal cord” value in the series on MMP-2 (setting [2]) is listed as “stayed the same or were slightly lower than the control”. Moreover, the “MMP-2 rebound effect due to discontinuation” value with MMP-2 (setting [3]) is on record as “No evidence of a MMP-2 and/or MMP-9 rebound effect”. The “MMP-9 levels in spinal cord” value with MMP-9 (setting [2]) is “stayed the same or were slightly lower than the control”. Besides, in the series with MMP-9 (setting [3]), the “MMP-9 rebound effect due to discontinuation” value is “No evidence of a MMP-2 and/or MMP-9 rebound effect”.
